Test results as given in US4435417A, “Antiinflammatory 3H-naphtho[1,2-d]imidazoles” (Gruppo Lepetit S.p.A., priority 1982, dated 1984).

Experiments:
[1] = test system: granuloma formed on a cotton pellet implanted subcutaneously in rats; assay: Cotton pellet granuloma test in rats (Meier et al.); conditions: Rattus norvegicus, po, read-out: Percent inhibition of the granuloma pellet
in vivo = conditions: mouse, po
Method: The toxicities were determined according to Lichtfield and Wilcoxon, Journ. Pharm.

[2] = test system: carrageenin-induced edema in the rat paw; assay: Carrageenin-induced edema of the rat paw (Winter et al.); assay type: in vivo; conditions: po, read-out: Percent inhibition of the carrageenin-induced edema; for inhibition in vivo at 20 mg/kg: 20 mg/kg os; for inhibition in vivo at 50 mg/kg: 50 mg/kg os; for inhibition in vivo at 100 mg/kg: 100 mg/kg os; for inhibition in vivo at 200 mg/kg: 200 mg/kg os
[3] = test system: adjuvant induced arthritis in rats; assay: Adjuvant induced arthritis test in rats (Newbold); assay type: in vivo, rat; conditions: rats p.o.
Method: In still another some of the compounds were tested in the adjuvant induced arthritis test in rats.
This test which was performed as described by B. B. Newbold in Bri. Journ. Pharmacol., 21, 127, (1963), is absolutely meaningful, because adjuvant arthritis is one of the best pharmacological tool with which a pharmacologist can investigate compounds as to their possible antiinflammatory activity, owing to the fact that this experimental model of chronic inflammation looks closer like to the conditions of rheumatoid arthritis of the human pathology (see Pearson, C. M., Arthritis and allied conditions, page 119, Lea and Febiger Publ. 1967 and Pearson C. M., J. Chronic Diseases, 16, 863 (1963).
. The measure of effectiveness of the compounds in this test is given by their ability in reducing the volume of the hind paws of the rats.

| SMILES | inhibition in vivo at 100 mg/kg [1] [%] | LD50 (in vivo) [mg/kg] | inhibition in vivo at 20 mg/kg [2] [%] | inhibition in vivo at 50 mg/kg [2] [%] | inhibition in vivo at 100 mg/kg [2] [%] | inhibition in vivo at 200 mg/kg [1] [%] | inhibition in vivo at 200 mg/kg [2] [%] | % Reduction of the volume of the hind paws over the control ([3]; 200 mg/kg) [%] | % Reduction of the volume of the hind paws over the control ([3]; 100 mg/kg) [%] |
| --- | --- | --- | --- | --- | --- | --- | --- | --- | --- |
| CNc1ccc(-c2nc3c4ccccc4ccc3n2C)cc1 [Example 7, N-methyl-4-(3-methyl-3H-naphtho[1,2-d]imidazol-2-yl)benzenamine] | 33 | 500 | 29 | 37 | 47 | – | – | – | – |
| Cn1c(-c2ccccc2)nc2c3ccccc3ccc21 [Example 1, 3-methyl-2-phenyl-3H-naphtho[1,2-d]imidazole] | – | 1000 | – | 24 | 37 | 24 | 42 | – | – |
| CN(C)c1ccc(-c2nc3c4ccccc4ccc3n2C)cc1 [Example 4, N,N-dimethyl-4-(3-methyl-3H-naphtho[1,2-d]imidazol-2-yl) benzenamine] | 24 | 500 | 32 | 46 | 54 | – | – | – | – |
| COc1ccc(-c2nc3c4ccccc4ccc3n2C)cc1 [Example 3, 2-(4-methoxyphenyl)-3-methyl-3H-naphtho[1,2-d]imidazole] | 40 | ~1000 | – | 34 | 41 | – | – | 33 | – |
| Cc1cc(-c2nc3c4ccccc4ccc3n2C)ccc1N(C)C [Example 5, 4-(3-methyl-3H-naphtho[1,2-d]imidazol-2-yl)-2,N,N-trimethylbenzenamine] | 38 | 500 | 35 | 50 | 64 | – | – | – | 42 |
| CCOc1ccc(-c2nc3c4ccccc4ccc3n2C)cc1 [Example 2, 3-methyl-2-(4-ethoxyphenyl)-3H-naphtho[1,2-d]imidazole] | – | > 1000 | – | 21 | 37 | 40 | 45 | – | – |
| CCn1c(-c2ccc(OC)cc2)nc2c3ccccc3ccc21 [Example 15, 3-ethyl-2-(4-methoxyphenyl)-3H-naphtho[1,2-d]imidazole] | – | > 1000 | 31 | 45 | 49 | 31 | 52 | – | – |
| COc1ccc(-c2nc3c4ccccc4ccc3n2C(C)C)cc1 [Example 9, 3-(1-methylethyl)-2-(4-methoxyphenyl)-3H-naphth[1,2-d]imidazole] | – | – | – | 32 | 45 | 45 | 48 | 53 | – |
